Test: xn = mol fraction of the nth substance listed
Conditions: 101 kPa

## CN(C)C=O + CC[n+]1ccn(C)c1.F[B-](F)(F)F
293.15 K, x1 = 1
  speed of sound: 1477.8 m/s
303.15 K, x1 = 1
  speed of sound: 1440.3 m/s
308.15 K, x1 = 1
  speed of sound: 1421 m/s

## CNC=O + CC[n+]1ccn(C)c1.F[B-](F)(F)F
293.15 K, x1 = 0.0661
  speed of sound: 1633.3 m/s
293.15 K, x1 = 0.0886
  speed of sound: 1633.3 m/s
293.15 K, x1 = 0.1287
  speed of sound: 1633 m/s
293.15 K, x1 = 0.1757
  speed of sound: 1631.7 m/s
293.15 K, x1 = 0.2258
  speed of sound: 1628 m/s
293.15 K, x1 = 0.2783
  speed of sound: 1622.6 m/s
293.15 K, x1 = 0.3729
  speed of sound: 1608.1 m/s
293.15 K, x1 = 0.4259
  speed of sound: 1597.9 m/s
293.15 K, x1 = 0.4766
  speed of sound: 1585.5 m/s
293.15 K, x1 = 0.5291
  speed of sound: 1572.2 m/s
293.15 K, x1 = 0.5749
  speed of sound: 1559.2 m/s
293.15 K, x1 = 0.6252
  speed of sound: 1543.5 m/s
293.15 K, x1 = 0.7281
  speed of sound: 1511.5 m/s
293.15 K, x1 = 0.7744
  speed of sound: 1496.7 m/s
293.15 K, x1 = 0.8271
  speed of sound: 1481.1 m/s
293.15 K, x1 = 0.8782
  speed of sound: 1467.7 m/s
298.15 K, x1 = 0.0886
  speed of sound: 1622.4 m/s
298.15 K, x1 = 0.1287
  speed of sound: 1622.1 m/s
298.15 K, x1 = 0.1757
  speed of sound: 1619.5 m/s
298.15 K, x1 = 0.2258
  speed of sound: 1615.8 m/s
298.15 K, x1 = 0.2783
  speed of sound: 1609 m/s
298.15 K, x1 = 0.3287
  speed of sound: 1601.7 m/s
298.15 K, x1 = 0.3729
  speed of sound: 1593 m/s
298.15 K, x1 = 0.4259
  speed of sound: 1582.3 m/s
298.15 K, x1 = 0.4766
  speed of sound: 1569.5 m/s
298.15 K, x1 = 0.5749
  speed of sound: 1543.2 m/s
298.15 K, x1 = 0.6252
  speed of sound: 1527.8 m/s
298.15 K, x1 = 0.6773
  speed of sound: 1511.9 m/s
298.15 K, x1 = 0.8782
  speed of sound: 1453.9 m/s
298.15 K, x1 = 1
  speed of sound: 1431.9 m/s
303.15 K, x1 = 0.0886
  speed of sound: 1611.3 m/s
303.15 K, x1 = 0.1287
  speed of sound: 1610.8 m/s
303.15 K, x1 = 0.1757
  speed of sound: 1607.8 m/s
303.15 K, x1 = 0.2258
  speed of sound: 1603.3 m/s
303.15 K, x1 = 0.2783
  speed of sound: 1595.9 m/s
303.15 K, x1 = 0.4259
  speed of sound: 1567.3 m/s
303.15 K, x1 = 0.4766
  speed of sound: 1554.2 m/s
303.15 K, x1 = 0.5291
  speed of sound: 1540.2 m/s
303.15 K, x1 = 0.6252
  speed of sound: 1513 m/s
303.15 K, x1 = 0.6773
  speed of sound: 1496.9 m/s
303.15 K, x1 = 0.7281
  speed of sound: 1482 m/s
303.15 K, x1 = 0.7744
  speed of sound: 1467.9 m/s
303.15 K, x1 = 0.8271
  speed of sound: 1453 m/s
303.15 K, x1 = 1
  speed of sound: 1417.7 m/s
308.15 K, x1 = 0.0886
  speed of sound: 1600.3 m/s
308.15 K, x1 = 0.1757
  speed of sound: 1596.1 m/s
308.15 K, x1 = 0.2258
  speed of sound: 1590.7 m/s
308.15 K, x1 = 0.2783
  speed of sound: 1583.5 m/s
308.15 K, x1 = 0.4259
  speed of sound: 1552.1 m/s
308.15 K, x1 = 0.4766
  speed of sound: 1539.1 m/s
308.15 K, x1 = 0.5291
  speed of sound: 1524.6 m/s
308.15 K, x1 = 0.5749
  speed of sound: 1511.9 m/s
308.15 K, x1 = 0.6252
  speed of sound: 1496.9 m/s
308.15 K, x1 = 0.6773
  speed of sound: 1480.7 m/s
308.15 K, x1 = 0.7744
  speed of sound: 1452.1 m/s
308.15 K, x1 = 0.8271
  speed of sound: 1437 m/s

## CC[n+]1ccn(C)c1.F[B-](F)(F)F + CN(C)C=O
293.15 K, x2 = 0
  speed of sound: 1631 m/s
293.15 K, x2 = 0.0903
  speed of sound: 1625.1 m/s
293.15 K, x2 = 0.1717
  speed of sound: 1622.4 m/s
293.15 K, x2 = 0.2275
  speed of sound: 1621.4 m/s
293.15 K, x2 = 0.2781
  speed of sound: 1620.2 m/s
293.15 K, x2 = 0.3276
  speed of sound: 1618.1 m/s
293.15 K, x2 = 0.3781
  speed of sound: 1615.6 m/s
293.15 K, x2 = 0.4227
  speed of sound: 1612.9 m/s
293.15 K, x2 = 0.4757
  speed of sound: 1607.8 m/s
293.15 K, x2 = 0.5697
  speed of sound: 1593.8 m/s
293.15 K, x2 = 0.6261
  speed of sound: 1582.9 m/s
293.15 K, x2 = 0.7291
  speed of sound: 1558.1 m/s
293.15 K, x2 = 0.769
  speed of sound: 1546.4 m/s
293.15 K, x2 = 0.8268
  speed of sound: 1529.4 m/s
298.15 K, x2 = 0
  speed of sound: 1619.4 m/s
298.15 K, x2 = 0.0903
  speed of sound: 1611.5 m/s
298.15 K, x2 = 0.1257
  speed of sound: 1609.6 m/s
298.15 K, x2 = 0.2275
  speed of sound: 1606.7 m/s
298.15 K, x2 = 0.3276
  speed of sound: 1603.9 m/s
298.15 K, x2 = 0.3781
  speed of sound: 1601 m/s
298.15 K, x2 = 0.4227
  speed of sound: 1598.5 m/s
298.15 K, x2 = 0.5258
  speed of sound: 1586.4 m/s
298.15 K, x2 = 0.5697
  speed of sound: 1579.9 m/s
298.15 K, x2 = 0.6261
  speed of sound: 1568.1 m/s
298.15 K, x2 = 0.8268
  speed of sound: 1512.2 m/s
298.15 K, x2 = 0.8789
  speed of sound: 1495.6 m/s
303.15 K, x2 = 0
  speed of sound: 1607.6 m/s
303.15 K, x2 = 0.0903
  speed of sound: 1598 m/s
303.15 K, x2 = 0.1257
  speed of sound: 1596 m/s
303.15 K, x2 = 0.1717
  speed of sound: 1594 m/s
303.15 K, x2 = 0.2275
  speed of sound: 1591.9 m/s
303.15 K, x2 = 0.2781
  speed of sound: 1590.4 m/s
303.15 K, x2 = 0.3276
  speed of sound: 1589.2 m/s
303.15 K, x2 = 0.3781
  speed of sound: 1586.1 m/s
303.15 K, x2 = 0.4227
  speed of sound: 1583.6 m/s
303.15 K, x2 = 0.4757
  speed of sound: 1577.9 m/s
303.15 K, x2 = 0.5258
  speed of sound: 1571.3 m/s
303.15 K, x2 = 0.6261
  speed of sound: 1552.6 m/s
303.15 K, x2 = 0.6758
  speed of sound: 1541.3 m/s
303.15 K, x2 = 0.7291
  speed of sound: 1526.5 m/s
303.15 K, x2 = 0.769
  speed of sound: 1513.9 m/s
303.15 K, x2 = 0.8268
  speed of sound: 1495.4 m/s
303.15 K, x2 = 0.8789
  speed of sound: 1478.4 m/s
308.15 K, x2 = 0.0903
  speed of sound: 1586 m/s
308.15 K, x2 = 0.1257
  speed of sound: 1583.1 m/s
308.15 K, x2 = 0.2275
  speed of sound: 1577.6 m/s
308.15 K, x2 = 0.2781
  speed of sound: 1574.8 m/s
308.15 K, x2 = 0.3276
  speed of sound: 1572.2 m/s
308.15 K, x2 = 0.3781
  speed of sound: 1569.6 m/s
308.15 K, x2 = 0.4227
  speed of sound: 1565.4 m/s
308.15 K, x2 = 0.4757
  speed of sound: 1560.5 m/s
308.15 K, x2 = 0.5258
  speed of sound: 1553.1 m/s
308.15 K, x2 = 0.6261
  speed of sound: 1534.5 m/s
308.15 K, x2 = 0.6758
  speed of sound: 1523.2 m/s
308.15 K, x2 = 0.7291
  speed of sound: 1508.1 m/s
308.15 K, x2 = 0.769
  speed of sound: 1496.7 m/s
308.15 K, x2 = 0.8268
  speed of sound: 1478 m/s
308.15 K, x2 = 0.8789
  speed of sound: 1460.1 m/s

## CC[n+]1ccn(C)c1.F[B-](F)(F)F + CNC=O
293.15 K, x2 = 0
  speed of sound: 1631 m/s
298.15 K, x2 = 0
  speed of sound: 1619.4 m/s
303.15 K, x2 = 0
  speed of sound: 1607.6 m/s
308.15 K, x2 = 0
  speed of sound: 1596.3 m/s

— a compilation of properties of binary mixtures (doi:10.1007/s10953-013-9991-z)
